pIC50: −log10 of the molar value.
What follows are compounds tested against T1, recombinant human Flag-tagged PARP7 (amino acids 456-657) (Homo sapiens, UniProt Q7Z3E1) (assay: PARP7 biochemical DELFIA assay (auto-MARylation)). Conditions: DELFIA readout, IC50 class.
T1 construct: recombinant human Flag-tagged PARP7 (amino acids 456-657)
T1 sequence (Q7Z3E1 456-657): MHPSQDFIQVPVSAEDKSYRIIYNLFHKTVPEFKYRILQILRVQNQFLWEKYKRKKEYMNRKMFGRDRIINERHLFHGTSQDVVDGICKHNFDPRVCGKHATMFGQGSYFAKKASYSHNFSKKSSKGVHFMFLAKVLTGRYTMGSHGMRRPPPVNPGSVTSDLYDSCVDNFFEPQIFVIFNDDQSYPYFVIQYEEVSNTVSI
In short: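 Flag-PARP7 (456-657), 12.5-37.5 nM stock, captured on anti-FLAG wells, preincubated 30 min with compound, then auto-MARylated with biotin-NAD+ (15 μM stock) in HEPES pH 7.5/NaCl/DTT/BSA/Tween for 2-3 h at room temperature. NAD+ quench; Eu-streptavidin DELFIA read, Ex337/Em620 nm.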

| Structure (SMILES) | pIC50 |
| --- | --- |
| O=C(CCOCCc1cccc2c(=O)[nH]ncc12)N1CCN(c2nc3ccccc3[nH]2)CC1 [Compound 213] | ≥ 7.00 |
| Cn1c(N2CCN(C(=O)CCOCCc3cccc4c(=O)[nH]ncc34)CC2)nc2ccccc21 [Compound 214] | ≥ 7.00 |
| O=C(CCOCCn1nc(C(F)(F)F)c2c(=O)[nH]ncc21)N1CCN(c2nc3cc(F)ccc3o2)CC1 [Compound 215, 1-(2-(3-(4-(5-fluorobenzo[d]oxazol-2-yl)piperazin-1-yl)-3-oxopropoxy)ethyl)-3-(trifluoromethyl)-1,5-dihydro-4H-pyrazolo[3,4-d]pyridazin-4-one] | ≥ 7.00 |
| O=C1CCc2cnc(N3CCN(C(=O)CCOCCc4cccc5c(=O)[nH]ncc45)CC3)nc2N1 [Compound 216] | ≥ 7.00 |
| Cc1ccc(CCOCCC(=O)N2CCN(c3ncc(C(F)(F)F)cn3)CC2)c2cn[nH]c(=O)c12 [Compound 217] | ≥ 7.00 |
| N#Cc1ccc2nc(N3CCN(C(=O)CCOCCn4nc(C(F)(F)F)c5c(=O)[nH]ncc54)CC3)oc2c1 [Compound 218] | ≥ 7.00 |
| O=C(CCOCCc1cccc2c(=O)[nH]ncc12)N1CCC(c2cc(C(F)(F)F)on2)CC1 [Compound 219] | 6.00 to 7.00 |
| O=C(CCOCCc1cccc2c(=O)[nH]ncc12)N1CCN(c2ncc3c(n2)NCCC3)CC1 [Compound 220] | ≥ 7.00 |
| O=C(CCOCCc1ccc(Cl)c2c(=O)[nH]ncc12)N1CCN(c2ncc(C(F)(F)F)cn2)CC1 [Compound 226] | ≥ 7.00 |
| O=C(CCOCCc1c(F)ccc2c(=O)[nH]ncc12)N1CCN(c2ncc(C(F)(F)F)cn2)CC1 [Compound 229] | ≥ 7.00 |
| Cc1c(C)n(CCOCCC(=O)N2CCN(c3ncc(C(F)(F)F)cn3)CC2)c2cn[nH]c(=O)c12 [Compound 230] | ≥ 7.00 |
| O=C(CCOCCc1cncc2c(=O)[nH]ncc12)N1CCN(c2ncc(C(F)(F)F)cn2)CC1 [Compound 231] | ≥ 7.00 |
| O=C(CCOCCn1cc(C(F)(F)F)c2c(=O)[nH]ncc21)N1CCN(c2ncc(Cl)cn2)CC1 [Compound 232] | ≥ 7.00 |
| O=C(CCOCCc1cccc2c(=O)[nH]ccc12)N1CCN(c2ncc(C(F)(F)F)cn2)CC1 [Compound 233] | ≥ 7.00 |
| O=C1NCCn2c(CCOCCC(=O)N3CCN(c4ncc(C(F)(F)F)cn4)CC3)nc(C(F)(F)F)c21 [Compound 235, 3-(2-(3-oxo-3-(4-(5-(trifluoromethyl)pyrimidin-2-yl)piperazin-1-yl)propoxy)ethyl)-1-(trifluoromethyl)-6,7-dihydroimidazo[1,5-a]pyrazin-8(5H)-one] | ≥ 7.00 |
| O=C(CCOCCn1nc(C(F)F)c2c(=O)[nH]ncc21)N1CCN(c2ncc(C(F)(F)F)cn2)CC1 [Compound 236, 3-(difluoromethyl)-1-(2-(3-oxo-3-(4-(5-(trifluoromethyl)pyrimidin-2-yl)piperazin-1-yl)propoxy)ethyl)-1,5-dihydro-4H-pyrazolo[3,4-d]pyridazin-4-one] | ≥ 7.00 |
| CC1(C)CN(C(=O)CCOCCn2cc(C(F)(F)F)c3c(=O)[nH]ncc32)CCN1c1ccc(C(F)(F)F)cn1 [Compound 237] | ≥ 7.00 |
| O=C(CCOCCn1cc(C(F)(F)F)c2c(=O)[nH]ncc21)N1CCN(c2ccc(Cl)cn2)CC1 [Compound 238] | ≥ 7.00 |
| O=C(CCOCCN1C(=O)CCc2c1cn[nH]c2=O)N1CCN(c2ccc(C(F)(F)F)cn2)CC1 [Compound 240, 1-(2-(3-oxo-3-(4-(5-(trifluoromethyl)pyridin-2-yl)piperazin-1-yl)propoxy)ethyl)-4,6-dihydropyrido[2,3-d]pyridazine-2,5(1H,3H)-dione] | ≥ 7.00 |
| O=C(CCOCCN1C(=O)CCc2c1cn[nH]c2=O)N1CCN(c2ncc(Cl)cn2)CC1 [Compound 242] | ≥ 7.00 |
| Cc1nn(C(C)COCCC(=O)N2CCN(c3ccc(C#N)cn3)CC2)c2cn[nH]c(=O)c12 (stereo not shown) [Compound 243] | ≥ 7.00 |

| Structure (SMILES) | pIC50 |
| --- | --- |
| Cc1nn(C(C)COCCC(=O)N2CCN(c3ccc(C#N)cn3)CC2)c2cn[nH]c(=O)c12 (stereo not shown) [Compound 244] | ≥ 7.00 |
| Cc1nn(C(C)COCCC(=O)N2CCN(c3ncc(C(F)(F)F)cn3)CC2)c2cn[nH]c(=O)c12 (stereo not shown) [Compound 246] | ≥ 7.00 |
| O=C(CCOCCn1nc(C(F)(F)F)c2c(=O)[nH]ncc21)N1CCN(c2ncc(C(F)(F)F)s2)CC1 [Compound 247] | ≥ 7.00 |
| CC(COCCC(=O)N1CCN(c2nc(C#N)cs2)CC1)n1nc(C(F)(F)F)c2c(=O)[nH]ncc21 (stereo not shown) [Compound 251] | ≥ 7.00 |
| CC(C)(C)c1cnc(N2CCN(C(=O)CCOCCc3cccc4c(=O)[nH]ncc34)CC2)nc1 [Compound 252] | ≥ 7.00 |
| Cc1nn(CCOCCC(=O)N2CCN(c3ncc(C(F)(F)F)cn3)C(C)C2)c2cn[nH]c(=O)c12 (stereo not shown) [Compound 256] | ≥ 7.00 |
| O=C(CCOCCn1nc(C(F)(F)F)c2c(=O)[nH]ncc21)N1CCN(c2nc3ccccc3[nH]2)CC1 [Compound 257] | ≥ 7.00 |
| CC(COCCC(=O)N1CCN(c2ncc(C(F)(F)F)s2)CC1)n1nc(C(F)(F)F)c2c(=O)[nH]ncc21 (stereo not shown) [Compound 259] | ≥ 7.00 |
| CCc1nc2c(=O)[nH]ncc2n1CCOCCC(=O)N1CCN(c2ncc(C(F)(F)F)cn2)CC1 [Compound 260] | 5.00 to 6.00 |
| O=C(CCOCCN1C(=O)CCc2c1cn[nH]c2=O)N1CCN(c2ccc(Cl)cn2)CC1 [Compound 261] | ≥ 7.00 |
| CC(COCCC(=O)N1CCN(c2ncc(C(F)F)cn2)CC1)n1nc(C(F)(F)F)c2c(=O)[nH]ncc21 (stereo not shown) [Compound 264] | ≥ 7.00 |
| CC(COCCC(=O)N1CCN(c2ncc(C(F)F)cn2)CC1)n1nc(C(F)(F)F)c2c(=O)[nH]ncc21 (stereo not shown) [Compound 265] | ≥ 7.00 |
| CC(COCCC(=O)N1CCN(c2cnc(C(F)(F)F)cn2)CC1)n1nc(C(F)(F)F)c2c(=O)[nH]ncc21 (stereo not shown) [Compound 267] | ≥ 7.00 |
| Cc1nn(CCOCCC(=O)N2CCN(c3ncc(C(F)(F)F)cn3)CC2C)c2cn[nH]c(=O)c12 (stereo not shown) [Compound 268] | ≥ 7.00 |
| CC(COCCC(=O)N1CCN(c2ccc(C#N)cn2)CC1)n1nc(C(F)(F)F)c2c(=O)[nH]ncc21 (stereo not shown) [Compound 269] | ≥ 7.00 |
| N#Cc1ccc(N2CCN(C(=O)CCOCCn3c(C(F)(F)F)nc4c(=O)[nH]ncc43)CC2)nc1 [Compound 272] | 5.00 to 6.00 |
| CC(COCCC(=O)N1CCN(c2ncc(Cl)cn2)CC1)n1cc(C(F)(F)F)c2c(=O)[nH]ncc21 (stereo not shown) [Compound 273] | ≥ 7.00 |
| CC(COCCC(=O)N1CCN(c2ccc(OC(F)F)cn2)CC1)n1nc(C(F)(F)F)c2c(=O)[nH]ncc21 (stereo not shown) [Compound 275] | ≥ 7.00 |
| O=C(CCOCCn1nc(C(F)(F)F)c2c(=O)[nH]ncc21)N1CCN(c2nnc(C(F)(F)F)s2)CC1 [Compound 276] | ≥ 7.00 |
| O=C(CCOCCN1C(=O)CCc2c1cn[nH]c2=O)N1CCN(c2nc3ccccc3o2)CC1 [Compound 277] | ≥ 7.00 |
| CC(COCCC(=O)N1CCN(c2ccc(C3CC3)cn2)CC1)n1nc(C(F)(F)F)c2c(=O)[nH]ncc21 (stereo not shown) [Compound 278] | ≥ 7.00 |

| Structure (SMILES) | pIC50 |
| --- | --- |
| O=C(CCOCCc1cccc2c(=O)[nH]ncc12)N1CCC(c2cc(C(F)(F)F)[nH]n2)CC1 [Compound 282] | 5.00 to 6.00 |
| CC(COCCC(=O)N1CCN(c2ncc(C#N)s2)CC1)n1nc(C(F)(F)F)c2c(=O)[nH]ncc21 (stereo not shown) [Compound 283] | ≥ 7.00 |
| O=C(CCOCCn1nc(C(F)(F)F)c2c(=O)[nH]ncc21)N1CCN(c2ncc(Cl)cn2)CC1 [Compound 285] | ≥ 7.00 |
| Cc1cnc(N2CCN(C(=O)CCOCC(C)n3nc(C(F)(F)F)c4c(=O)[nH]ncc43)CC2)nc1 (stereo not shown) [Compound 286] | ≥ 7.00 |
| Cc1cnc(N2CCN(C(=O)CCOCC(C)n3nc(C(F)(F)F)c4c(=O)[nH]ncc43)CC2)nc1 (stereo not shown) [Compound 287] | ≥ 7.00 |
| CC(COCCC(=O)N1CCN(c2ncc(C3COC3)cn2)CC1)n1nc(C(F)(F)F)c2c(=O)[nH]ncc21 (stereo not shown) [Compound 288] | ≥ 7.00 |
| CC(COCCC(=O)N1CCN(c2nnc(C(F)(F)F)s2)CC1)n1nc(C(F)(F)F)c2c(=O)[nH]ncc21 (stereo not shown) [Compound 292] | ≥ 7.00 |
| CC(COCCC(=O)N1CCN(c2ncc(OC(F)F)cn2)CC1)n1nc(C(F)(F)F)c2c(=O)[nH]ncc21 (stereo not shown) [Compound 293] | ≥ 7.00 |
| O=C(CCOCCn1nc(C(F)(F)F)c2c(=O)[nH]ncc21)N1CCN(c2ccc(C3COC3)cn2)CC1 [Compound 295] | ≥ 7.00 |
| CCC(COCCC(=O)N1CCN(c2ncc(C(F)(F)F)cn2)CC1)n1nc(C(F)(F)F)c2c(=O)[nH]ncc21 (stereo not shown) [Compound 297] | ≥ 7.00 |
| CCC(COCCC(=O)N1CCN(c2ncc(C(F)(F)F)cn2)CC1)n1nc(C(F)(F)F)c2c(=O)[nH]ncc21 (stereo not shown) [Compound 298] | ≥ 7.00 |
| O=C(CCOCCn1nc(C(F)(F)F)c2c(=O)[nH]ncc21)N1CCN(c2nc(C(F)(F)F)cs2)CC1 [Compound 299] | ≥ 7.00 |
| O=C(CCOCCn1nc(C(F)(F)F)c2c(=O)[nH]ncc21)N1CCN(c2ccc(C3CC3)cn2)CC1 [Compound 300] | ≥ 7.00 |
| O=C1CCc2cnc(N3CCN(C(=O)CCOCCn4nc(C(F)(F)F)c5c(=O)[nH]ncc54)CC3)nc2N1 [Compound 303] | ≥ 7.00 |
| CNC(=O)c1ccc(N2CCN(C(=O)CCOCC(C)n3nc(C(F)(F)F)c4c(=O)[nH]ncc43)CC2)nc1 (stereo not shown) [Compound 304] | 6.00 to 7.00 |
| COc1ccc(N2CCN(C(=O)CCOCC(C)n3nc(C(F)(F)F)c4c(=O)[nH]ncc43)CC2)nc1 (stereo not shown) [Compound 307] | ≥ 7.00 |
| CC1CN(C(=O)CCOCCN2C(=O)CCc3c2cn[nH]c3=O)CCN1c1ncc(C(F)(F)F)cn1 (stereo not shown) [Compound 308] | ≥ 7.00 |
| CC1CN(C(=O)CCOCCN2C(=O)CCc3c2cn[nH]c3=O)CCN1c1ncc(C(F)(F)F)cn1 (stereo not shown) [Compound 309] | ≥ 7.00 |
| CC(COCCC(=O)N1CCN(c2cnc(C#N)cn2)CC1)n1nc(C(F)(F)F)c2c(=O)[nH]ncc21 (stereo not shown) [Compound 312] | ≥ 7.00 |

From patent US20240217968A1, “PHARMACEUTICAL COMPOUND” (DUKE STREET BIO LIMITED, priority 2021, published 2024)
